Data on 1 molecule can be found in patent publication US20240361265A1, “APPARATUS AND METHODS FOR EXTRACELLULAR IMPEDANCE SPECTROSCOPY OF BARRIER CELLS” (Georgia Tech Research Corporation, priority 2023, published 2024).

Bounds are passed on as bounds.

One test concerns iPSC-derived RPE. Kind of test: Combined intracellular pipette and EIS (3P-EIS) recording of iPSC-RPE response to apical ATP in modified Ussing chamber. The following applies: for membrane-specific capacitance changes: apical ATP stimulation. Type of test: cell-based, human. The method, then:
Human iPSC-RPE cells. The study performed the protocol for induced pluripotent stem cell (iPSC) differentiation described in [29]. Briefly, for each individual iPSC line, somatic cells (blood or fibroblasts) were isolated from a single donor and were reprogrammed using the Sendai virus or episomal reprograming methods. Reprogramed iPSC colonies were differentiated into RPE using the protocol described by Sharma et al.. iPSC-derived RPE cells were seeded onto Corning 3406 Transwells, with a seeding density of 300,000 cells/cm^2 and 250,000 cells/cm^2 and were measured at approximately 300 days old. Fully-mature RPE cells were characterized with a transmission electron microscope (TEM) for morphology, gene expression, and immunostaining for RPE-specific markers. For iPSC genotype, TaqMan genotyping assays (ThermoFisher) were used. The following probes were tested: rs1061170 (Assay ID: AHI1TPW; 4331349); rs2230199 (Assay ID: C_26330755_10; 4351379). SNP rs10490924 (Assay ID: C_29934973_20; 4351379). Two human donors were used to derive iPSC-RPE for this experiment. Samples 1 and 2 were derived from donor A, and sample 3 was derived from donor B.
Tissue mounting and maintenance. The study performed the method for mounting the tissue into the modified Ussing chamber for electrophysiology described in [32]. Briefly, a 7 mm diameter, circular section of the iPSC-RPE Transwell was punched out, mounted, and sealed into the chamber, apical side up. Electrical current leak, due to poor sealing between the Ussing chamber and the Transwell punch-out, was minimized by placing a nylon mesh insert beneath the sample so that the iPSC-RPE made contact around the entire circumference of the chamber. The total exposed tissue cross-section was approximately 0.11 cm^2. Experimental solutions were perfused across both sides of the tissue for the entire duration of the experiment.
Electrophysiological solution. The standard, control solution was the same modified Ringer's solution as has been described previously. In brief, the solution contains (in mM): 5 KCl, 116.5 NaCl, 23 NaHCO3, 0.5 MgCl2, 1.8 CaCl2, 2 taurine, 5 glucose, and 10 sucrose. All salts (except for CaCl2) were mixed into de-ionized water at room temperature (20 C). The solution was bubbled for approximately 5 minutes with 95% CO2 before the addition of CaCl2. […] During an experiment, the solution was continuously bubbled with a custom gas mixture (5% CO2, 10% 02, and 85% N2) to maintain the Ringer's solution to a pH near 7.4±0.1.
Measurement Setup and Electrode Configuration. To measure the apical and basolateral bath voltages, Ringer-filled 3.5% agar bridges were connected to saturated KCl baths with submerged, double-junction AgCl reference electrodes (Fisher Scientific, Accumet, cat. No. 13-620-855). AgCl-coated Ag wires (0.01″ diameter) were submerged directly into the apical and basolateral baths to apply current across the tissues during galvanostatic measurements. The Ussing chamber was rotated approximately 30 degrees from horizontal during each experiment to simultaneously enable equal fluidic pressures across the epithelia while simultaneously allowing for apical bath access for intracellular pipettes.
The study performed the protocol for inserting a pipette into the cell's cytoplasm (FIG. 5C, node 3) for intracellular recordings described in [32]. Briefly, a LabVIEW-based controller was used to insert a pipette—backfilled with 150 mM NaCl—into the cytoplasm of a single cell using an N-565.260 piezoelectric motor connected to an E-861.1A1 single-axis controller box (Physik Instrumente). The pipette voltage was amplified using a Multiclamp 700B (Molecular Devices) amplifier, and the trans-epithelial potential (TEP) signal was amplified using a VCC 600 (Physiologic Instruments). The primary output of the Multiclamp 700B had the settings: 10 mV/mV in “Membrane Potential” mode with “gain” set to 1, and the Bessel filter was set to 30 kHz. […]

In a further test the test system is iPSC-RPE (Z8). Briefly: Extracellular EIS of iPSC-RPE response to apical ATP in perfusion chamber versus Ussing chamber. Type of test: cell-based, human. As for the experimental part:
EIS measurements were performed with an Autolab PGSTAT204 with a FRA32M […] (Utrecht, Netherlands). The device was controlled with the provided NOVA 2.1.5 software to perform frequency sweeps from 0.1 Hz to 10 kHz. The NOVA software was used to send up to 5 simultaneous frequencies spaced to approximately 5 unique measurements per decade. The PGSTAT working electrode was connected to the working electrode and counter electrode; the sense and reference electrodes were connected to the basal and apical baths through the Ringer-based agar bridges (connected to Ag|AgClreference electrodes in a saturated KCl bath), respectively.
Chamber design and extracellular epithelial properties: A custom device was assembled to rapidly and noninvasively evaluate the evoked responses and recovery of RPE to extracellular ATP (FIG. 4.3).
The “perfusion” chamber in FIG. 8A was created using the same Acrylic material as the Ussing chamber but was designed to interface with an intact, 12-well Transwell insert (Corning costar 3460). Ag|AgCl wires were used as the working and counter electrodes. These electrodes were shaped into a symmetric ring of maximum diameter that fits inside the chamber and placed as far from the epithelia as possible to maximize uniformity of the current flux across the tissue. The sense and reference electrodes (used to measure TEP) were single-junction KCl reference electrodes. The KCl reference electrode was constructed with an Ag|AgCl wire that was inserted in a glass body (1.5 mm outer diameter) and backfilled with 3 M KCl. The terminus of these electrodes was made of a Vycor frit that enabled electrical contact between the 3 M KCl solution and the perfusate. Ag|AgCl electrodes were selected due to their rapid and reversible redox reactions, and the bridges were designed to minimize the effect of drifting Cl− ion concentrations on the electrode junction potential. The sense and reference electrodes were inserted through the cylinders extruding through the top of the device such that they were positioned as close as possible to the tissue. The design of the Acrylic cylinders included a kinematic constraint for the electrodes to ensure that the distance between the tissue and voltage-sensing probes was consistent across all experiments.
For example, the magnitudes of extracellular tissue properties in normal Ringer's solution should be compared.
Furthermore, to ensure that the perfusion device can maintain the health and function of epithelia during long experiments, a simple experiment was devised to last at least 45 min; sufficient for rigorous RPE experiments performed in literature ([39′], [7′]). During this experiment the tissues were briefly exposed (approximately 10 min) to 100 μM ATP at the apical membrane. […]

In the case of `Nc1ncnc2c1ncn2[C@@H]1O[C@H](COP(=O)(O)OP(=O)(O)OP(=O)(O)O)[C@@H](O)[C@H]1O` [ATP, adenosine triphosphate], the “apical membrane resistance decrease” value with iPSC-derived RPE (100 μM apical ATP exposure, sample 1) is listed as 62%. Besides, the “apical membrane resistance increase” value in the test with iPSC-derived RPE (100 μM apical ATP exposure, sample 2) was found to be 89%; in the test on iPSC-derived RPE (100 μM apical ATP exposure, sample 3), 139%. Besides, the membrane-specific capacitance changes entry is “did not display ATP650-induced changes” with iPSC-derived RPE (Sample 1); “concurrent reductions in apical capacitance and elevations in basolateral capacitance” in the test with iPSC-derived RPE (Samples 2 and 3). Moreover, the “depolarization of the apical membrane (Va)” value is given as “approximately 20 mV” with iPSC-derived RPE (by the end of the ATP exposure, all three samples); 10 mV in the test with iPSC-derived RPE (first phase of the ATP-induced response, Sample 3); 20 mV with iPSC-derived RPE (first phase of the ATP-induced response, Samples 1 and 2). The “change in apical capacitance Ca” value with iPSC-derived RPE (during ATP administration) is listed as 12%. For the same molecule, the “change in basolateral capacitance Cb” value with iPSC-derived RPE (during ATP administration) was −6%. The TER response entry with iPSC-derived RPE (during ATP exposure, 3P-Classical or exemplary method) was “decrease in TER”. Besides, in the test with iPSC-derived RPE (during ATP exposure, Sample 3), the “basolateral resistance (Rb) response” value is listed as “expected reduction”. In addition, in the test with iPSC-derived RPE (during ATP exposure, all samples), the “shunt resistance (Rs) response” value is “rapid and substantial decrease”. Moreover, the TEP response result in the test with iPSC-derived RPE (remainder of the ATP exposure, all three samples) is given as “increase in TEP”. In addition, in the test with iPSC-RPE (Z8) (100 μM apical ATP, about 10 min, Ussing chamber), the “tissue capacitance (Ct) average decrease” value was 3%. The “tissue capacitance (Ct) average increase” value with iPSC-RPE (Z8) (100 μM apical ATP, about 10 min, perfusion chamber) is 11%. For the same molecule, the “time to return to within 95% of baseline after ATP” value in the test with iPSC-RPE (Z8) (both perfusion and Ussing chambers) is not above 40 min. In addition, the “extracellular time constant ratio response” value in the test on iPSC-RPE (Z8) (during ATP exposure, samples 1, 2 and 3, Ussing chamber) is given as “increased in magnitude”.
